Results as given in patent US20110224226A1, “COMPOSITIONS AND METHODS FOR INCREASING BLOOD PLATELET LEVELS IN HUMANS” (AKARX, Inc., priority 2006, published 2011).
Read-outs that look alike come from different tables or passages of the source.

Legend:
[1] = in-vitro plasma protein binding, humans; assay type: in vitro ADME; conditions: human, 0.05 to 50 μg/mL
Procedure: The in-vitro plasma protein binding of the drug of Formula I was independent of concentration over the concentration range of 0.05 to 50 μg/mL and was 87.2-89.1% in mice; 87.6-89.2% in rats; 88.3-92.0% in rabbits; […] in dogs; 97.0-97.6% in monkeys; and 96.3-96.6% in humans.

[2] = Example 1 single dose study: pharmacokinetics; assay type: in vivo, human; conditions: for Cmax / half-life / AUC(0-inf) / AUC(0-t) / AUC / Tmax: both sexes, human; for Tmax: read-out: mean time to maximum plasma concentration (Tmax)
Procedure: A single-center, randomized, double-blind, dose-rising study to determine the safety, pharmacokinetics, and pharmacodynamics of single doses of 1-(3-chloro-5-{[4-(4-chlorothiophen-2-yl)-5-(4-cyclohexylpiperazin-1-yl)thiazol-2-yl]carbamoyl} pyridin-2-yl)piperadine-4-carboxylic acid (Formula I) in normal healthy volunteers was performed. The starting dose of the drug of Formula I was 1 mg (expressed as free base). Successive dose cohorts received 3, 10, 20, 50, 75 and 100 mg. The drug substance in the form of the monomaleate salt was suspended in Ora-Plus® (purified water, microcrystalline cellulose, sodium carboxymethylcellulose, xanthan gum, citric acid, sodium phosphate, simethicone, potassium sorbate and methylparaben), a commercially available oral suspending vehicle manufactured by Paddock Laboratories, Inc. Minneapolis, Minn. The Ora-Plus® was diluted with purified water, USP in a 1:1 suspension before being used to suspend the drug substance powder in preparation for oral administration. Prior to administration, 30 mL of the Ora-Plus®/water vehicle was added to each bottle, shaken and then consumed by the subject for each of the 3, 10, 50 and 75 mg dose cohorts. This was followed by an additional 30 mL of vehicle that was added to the bottle as a wash solution, shaken and then consumed by the subject. For the 20 mg and 100 mg dose cohorts, 60 mL of the Ora-Plus®/water vehicle was added to two (2) separate bottles containing the appropriate dose of drug (30 mL each bottle), shaken then consumed by the subjects. This was followed by an additional 60 mL of vehicle that was added as 30 ml to each bottle as a wash solution, shaken and then consumed by the subject.
A minimum of 9 subjects (male and female healthy volunteers) were enrolled in each cohort. The active group within each cohort included male and female volunteers. Three subjects per cohort received placebo. Each successive dose cohort was treated no sooner than 10 days after the previous group had received the study drug. […] Each subject received only 1 dose of Formula I. Intra-subject dose escalation and treating previously treated subjects in any cohort expansions were not allowed. All subjects were followed until their platelet count returned to normal levels (defined as ±20% of baseline).
Dose escalation was stopped if the PD limiting dose was reached or at the dose at which a dose limiting toxicity (DLT) was observed. The pharmacodynamic limit (PD limit) is defined as the dose at which there was a 50% increase in platelet count relative to the […] in the 6 actively treated subjects. The pharmacodynamic limiting dose (if reached), was repeated by running an additional cohort of 9 subjects (3 placebo and 6 active) at the dose level of the observed PD limit.
Pharmacokinetic sampling was taken. Pharmacodynamic evaluations of platelet counts and other hematological parameters were performed from study drug administration (Day 1) until 7 days after dosing. Outpatient follow-up for safety evaluation occurred until 14 days post-treatment for all subjects and longer for subjects requiring additional follow-up. For the repeat PD dose cohort or 100 mg dose cohort, the evaluations of platelet counts and other hematological parameters were performed each day from Day 1 through 14 and then every other day up to Day 28. If the PD dose limit was not reached at a dose of 75 mg, platelet count evaluations as outlined for the PD limiting dose were performed on the 100 mg dose cohort.

2C19 = 2C19 (Homo sapiens, UniProt P33261); assay: inhibition of human liver cytochrome P450 2C19; assay type: in vitro ADME; conditions: human liver cytochrome P450 isoenzyme
Chain of 2C19 (P33261 whole entry): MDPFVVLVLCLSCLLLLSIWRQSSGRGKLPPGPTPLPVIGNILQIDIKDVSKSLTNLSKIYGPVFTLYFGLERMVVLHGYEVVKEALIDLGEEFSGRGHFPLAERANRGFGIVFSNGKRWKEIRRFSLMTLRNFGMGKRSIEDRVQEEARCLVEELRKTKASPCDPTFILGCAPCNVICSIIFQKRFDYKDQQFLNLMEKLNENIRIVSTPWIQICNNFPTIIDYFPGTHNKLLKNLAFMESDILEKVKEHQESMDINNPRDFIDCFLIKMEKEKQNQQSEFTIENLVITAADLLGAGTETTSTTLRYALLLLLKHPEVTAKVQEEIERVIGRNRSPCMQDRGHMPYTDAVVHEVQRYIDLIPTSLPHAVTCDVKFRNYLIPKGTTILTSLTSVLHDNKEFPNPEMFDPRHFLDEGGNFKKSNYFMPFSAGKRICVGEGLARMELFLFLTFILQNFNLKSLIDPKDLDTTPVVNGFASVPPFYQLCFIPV

fraction unbound [1]: 0.034 to 0.037 | Cmax ([2]; plasma, oral, 1 mg, single 1 mg daily dose, read-out: mean maximum plasma concentration (Cmax)): ~5.7 ng/mL | Cmax ([2]; plasma, oral, 3 mg, single 3 mg daily dose, read-out: mean maximum plasma concentration (Cmax)): 14 to 17 ng/mL | Cmax ([2]; plasma, oral, 10 mg, single 10 mg daily dose, (±20%), read-out: mean maximum plasma concentration (Cmax)): 53 to 69 ng/mL | Cmax ([2]; plasma, oral, 20 mg, single 20 mg daily dose, read-out: mean maximum plasma concentration (Cmax)): 121 to 168 ng/mL | Cmax ([2]; plasma, oral, 50 mg, single 50 mg daily dose, read-out: mean maximum plasma concentration (Cmax)): ~311 ng/mL | Cmax ([2]; plasma, oral, 75 mg, single 75 mg daily dose, read-out: mean maximum plasma concentration (Cmax)): ~473 ng/mL | Cmax ([2]; plasma, oral, 100 mg, 100 mg daily dose, read-out: mean maximum plasma concentration (Cmax)): ~388 ng/mL | Cmax ([2]; plasma, po, 1 mg, single oral dose 1 mg, healthy volunteers, final mean, read-out: Cmax): 5.67 ng/mL | half-life ([2]; plasma, po, 1 mg, single oral dose 1 mg, healthy volunteers, final mean, read-out: T½ (converted)): 21.5 h | Cmax ([2]; plasma, po, 1 mg, single oral dose 1 mg, healthy volunteers, preliminary mean, read-out: Cmax): 5.15 ng/mL | half-life ([2]; plasma, po, 1 mg, single oral dose 1 mg, healthy volunteers, preliminary mean, read-out: T½ (converted)): 18.9 h | Cmax ([2]; plasma, po, 3 mg, single oral dose 3 mg, healthy volunteers, preliminary mean, read-out: Cmax): 16 ng/mL | half-life ([2]; plasma, po, 3 mg, single oral dose 3 mg, healthy volunteers, preliminary mean, read-out: T½ (converted)): 17.5 h | Cmax ([2]; plasma, po, 10 mg, single oral dose 10 mg, healthy volunteers, preliminary mean, read-out: Cmax): 63.6 ng/mL | half-life ([2]; plasma, po, 10 mg, single oral dose 10 mg, healthy volunteers, preliminary mean, read-out: T½ (converted)): 18 h | Cmax ([2]; plasma, po, 20 mg, single oral dose 20 mg, healthy volunteers, preliminary mean, read-out: Cmax): 146 ng/mL | half-life ([2]; plasma, po, 20 mg, single oral dose 20 mg, healthy volunteers, preliminary mean, read-out: T½ (converted)): 12.9 h | Cmax ([2]; plasma, po, 50 mg, single oral dose 50 mg, healthy volunteers, final mean, read-out: Cmax): 312 ng/mL | half-life ([2]; plasma, po, 50 mg, single oral dose 50 mg, healthy volunteers, final mean, read-out: T½ (converted)): 19 h | Cmax ([2]; plasma, po, 50 mg, single oral dose 50 mg, healthy volunteers, preliminary mean, read-out: Cmax): 294 ng/mL | half-life ([2]; plasma, po, 50 mg, single oral dose 50 mg, healthy volunteers, preliminary mean, read-out: T½ (converted)): 14.8 h | Cmax ([2]; plasma, po, 75 mg, single oral dose 75 mg, healthy volunteers, final mean, read-out: Cmax): 474 ng/mL | half-life ([2]; plasma, po, 75 mg, single oral dose 75 mg, healthy volunteers, final mean, read-out: T½ (converted)): 18.8 h | Cmax ([2]; plasma, po, 75 mg, single oral dose 75 mg, healthy volunteers, preliminary mean, read-out: Cmax): 446 ng/mL | half-life ([2]; plasma, po, 75 mg, single oral dose 75 mg, healthy volunteers, preliminary mean, read-out: T½ (converted)): 15.3 h | Cmax ([2]; plasma, po, 100 mg, single oral dose 100 mg, healthy volunteers, final mean, read-out: Cmax): 388 ng/mL | half-life ([2]; plasma, po, 100 mg, single oral dose 100 mg, healthy volunteers, final mean, read-out: T½ (converted)): 18 h | Cmax ([2]; plasma, po, 100 mg, single oral dose 100 mg, healthy volunteers, preliminary mean, read-out: Cmax): 365 ng/mL | half-life ([2]; plasma, po, 100 mg, single oral dose 100 mg, healthy volunteers, preliminary mean, read-out: T½ (converted)): 15.8 h | AUC(0-inf) ([2]; plasma, single oral dose 1 mg, healthy volunteers, final mean): 183 ng·h/mL | AUC(0-t) ([2]; plasma, single oral dose 1 mg, healthy volunteers, final mean, read-out: AUC0-last): 130 ng·h/mL | AUC ([2]; plasma, single oral dose 1 mg, healthy volunteers, preliminary mean): 161 ng·h/mL | AUC ([2]; plasma, single oral dose 3 mg, healthy volunteers, preliminary mean): 477 ng·h/mL | AUC ([2]; plasma, single oral dose 10 mg, healthy volunteers, preliminary mean): 2110 ng·h/mL | AUC ([2]; plasma, single oral dose 20 mg, healthy volunteers, preliminary mean): 4020 ng·h/mL | AUC(0-inf) ([2]; plasma, single oral dose 50 mg, healthy volunteers, final mean): 8480 ng·h/mL | AUC(0-t) ([2]; plasma, single oral dose 50 mg, healthy volunteers, final mean, read-out: AUC0-last): 6880 ng·h/mL | AUC ([2]; plasma, single oral dose 50 mg, healthy volunteers, preliminary mean): 9180 ng·h/mL | AUC(0-inf) ([2]; plasma, single oral dose 75 mg, healthy volunteers, final mean): 13500 ng·h/mL | AUC(0-t) ([2]; plasma, single oral dose 75 mg, healthy volunteers, final mean, read-out: AUC0-last): 10800 ng·h/mL | AUC ([2]; plasma, single oral dose 75 mg, healthy volunteers, preliminary mean): 12600 ng·h/mL | AUC(0-inf) ([2]; plasma, single oral dose 100 mg, healthy volunteers, final mean): 11100 ng·h/mL | AUC(0-t) ([2]; plasma, single oral dose 100 mg, healthy volunteers, final mean, read-out: AUC0-last): 10900 ng·h/mL | AUC ([2]; plasma, single oral dose 100 mg, healthy volunteers, preliminary mean): 10500 ng·h/mL | half-life ([2]; serum, oral, single dose 1 mg to 100 mg, independent of the dose, read-out: serum elimination half-life (mean t1/2)): 18 to 24 h | Cmax ([2]; serum, po, 3 mg, single oral dose 3 mg, healthy volunteers, final mean, read-out: Cmax): 17.1 ng/mL | half-life ([2]; serum, po, 3 mg, single oral dose 3 mg, healthy volunteers, final mean, read-out: T½ (converted)): 23.6 h | Cmax ([2]; serum, po, 10 mg, single oral dose 10 mg, healthy volunteers, final mean, read-out: Cmax): 69.1 ng/mL | half-life ([2]; serum, po, 10 mg, single oral dose 10 mg, healthy volunteers, final mean, read-out: T½ (converted)): 21.8 h | Cmax ([2]; serum, po, 20 mg, single oral dose 20 mg, healthy volunteers, final mean, read-out: Cmax): 169 ng/mL | half-life ([2]; serum, po, 20 mg, single oral dose 20 mg, healthy volunteers, final mean, read-out: T½ (converted)): 18.9 h | AUC(0-inf) ([2]; serum, single oral dose 3 mg, healthy volunteers, final mean): 534 ng·h/mL | AUC(0-t) ([2]; serum, single oral dose 3 mg, healthy volunteers, final mean, read-out: AUC0-last): 401 ng·h/mL | AUC(0-inf) ([2]; serum, single oral dose 10 mg, healthy volunteers, final mean): 2380 ng·h/mL | AUC(0-t) ([2]; serum, single oral dose 10 mg, healthy volunteers, final mean, read-out: AUC0-last): 1650 ng·h/mL | AUC(0-inf) ([2]; serum, single oral dose 20 mg, healthy volunteers, final mean): 4440 ng·h/mL | AUC(0-t) ([2]; serum, single oral dose 20 mg, healthy volunteers, final mean, read-out: AUC0-last): 3600 ng·h/mL | AUC(0-t) ([2]; plasma, oral, 100 mg daily dose, read-out: mean AUC0-last): ~10900 ng·h/mL | Tmax ([2]; plasma, oral, 100 mg daily dose): ~6.2 h | AUC(0-t) ([2]; plasma, oral, single 1 mg daily dose, read-out: mean AUC0-last): ~130 ng·h/mL | Tmax ([2]; plasma, oral, single 1 mg daily dose): ~6.1 h | AUC(0-t) ([2]; plasma, oral, single 3 mg daily dose, read-out: mean AUC0-last): 235 to 400 ng·h/mL | Tmax ([2]; plasma, oral, single 3 mg daily dose): ~5.5 h | AUC(0-t) ([2]; plasma, oral, single 10 mg daily dose, read-out: mean AUC0-last): 840 to 1640 ng·h/mL | Tmax ([2]; plasma, oral, single 10 mg daily dose): 4.8 to 6 h | AUC(0-t) ([2]; plasma, oral, single 20 mg daily dose, read-out: mean AUC0-last): 1960 to 3600 ng·h/mL | Tmax ([2]; plasma, oral, single 20 mg daily dose): ~5.2 h | AUC(0-t) ([2]; plasma, oral, single 50 mg daily dose, read-out: mean AUC0-last): ~6880 ng·h/mL | Tmax ([2]; plasma, oral, single 50 mg daily dose): ~4.8 h | AUC(0-t) ([2]; plasma, oral, single 75 mg daily dose, read-out: mean AUC0-last): ~10800 ng·h/mL | Tmax ([2]; plasma, oral, single 75 mg daily dose): ~6 h | lag time ([2]; single oral dose, healthy volunteers): 2 to 4 h | inhibition of CYP2C19 (2C19): did not inhibit
Structure (SMILES): O=C(Nc1nc(-c2cc(Cl)cs2)c(N2CCN(C3CCCCC3)CC2)s1)c1cnc(N2CCC(C(=O)O)CC2)c(Cl)c1 [Formula I, 1-(3-chloro-5-{[4-(4-chlorothiophen-2-yl)-5-(4-cyclohexylpiperazin-1-yl)thiazol-2-yl]carbamoyl}pyridin-2-yl)piperadine-4-carboxylic acid]
dose proportionality of Cmax and AUC ([2]; single doses 1 to 100 mg, slightly lower than expected exposure at 100 mg): increased proportionally up to the 75 mg dose
